The test system of assay [1] is mutated Nur77-EGFP (Gln571, Glu398, Phe598). Put plainly: MST with mutated Nur77-EGFP in HEK293T cell lysate. The note with it: Nur77 mutated at Gln571, Glu398 and Phe598, Monolith NT.115, 40% MST power. It is filed as binding. The procedure:
The MST measure for the affinity of the peptide with purified Nur77 LBD protein was performed by Dianthus (Nano Temper). First, 1 × 10^−5 M protein was labeled with fluorescent dye and incubated with variable concentrations (0.1/0.4/0.8/1.6/3.1/6.3/12.5/25/50/100 × 10^−6 M) of peptides in PBST (containing 0.05% Tween‐20) (v/v, 10 µL: 10 µL). Incubated at room temperature away from light for 20 min, the mixture was loaded into the capillary and scanned. The MST measure for the affinity of the peptide with mutated Nur77‐EGFP was performed by Monolith NT.115 (Nano Temper). The HEK293T cell lysate was collected after transfection with the mutated Nur77‐EGFP plasmid for 48 h. The level of mutated Nur77‐EGFP was verified by the detection of fluorescence intensity. Different concentrations (0.1/0.4/0.8/1.6/3.1/6.3/12.5/25/50/100 × 10^−6 M) of ST‐CY14 were mixed with the cell lysate (v/v, 5 µL:5 µL) and incubated for 20 min. The measurement was carried out at 40% MST power.

Assay [2] concerns MDA-MB-231 cells. The experiment in a line: Western blot of Nur77, CD36 and FABP4. It is filed as cell-based. The procedure:
MCF7 and MDA‐MB‐231 cells were treated with various concentrations of peptide. The cells were then collected and lysed in NP40 lysis buffer. Total protein was quantified using a BCA assay kit (Beyotime, P0010S). The proteins were separated by SDS‐PAGE and transferred onto a PVDF membrane. The PVDF membrane was blocked in TBST containing 5% non‐fat milk, and then incubated with primary antibodies overnight at 4 °C. Subsequently, membranes were incubated with horseradish peroxidase‐conjugated antirabbit or antimouse IgG secondary antibody for 1 h at room temperature. The membranes were analyzed by a Tanon‐5200 Multi Gel Imaging Analysis System (Tanon) and quantified by ImageJ software.
(In general: A western blot detects proteins with antibodies after separation by electrophoresis.)

Where a SMILES comes first, the peptide text is derived from it. Bridges are numbered along the chain shown (N, C = ends). [ ]: non-standard residue; d: D form. S5 = C=CCCC[C@](C)(N)C(=O)O

For the compound `C[C@@H](O)[C@@H]1NC(=O)[C@H](CCCNC(=N)N)NC(=O)[C@H](CCCNC(=N)N)NC(=O)[C@@](C)(NC(=O)[C@H](Cc2ccccc2)NC(=O)CNC(=O)[C@H](CCCCN)NC(=O)[C@H](CS)NC(=O)CNC(=O)[C@H](CCC(=O)O)NC(=O)[C@@H](N)CS)CCCC=CCCC[C@@](C)(C(=O)N[C@@H](CCCNC(=N)N)C(=O)N[C@@H](Cc2ccc(O)cc2)C(=O)N[C@@H](Cc2ccc(O)cc2)C(=O)NCC(=O)N[C@@H](CCCNC(=N)N)C(=O)N[C@@H](CCCCN)C(=O)N[C@@H](CCCCN)C(=O)N[C@@H](CCCNC(=N)N)C(=O)N[C@@H](CCCNC(=N)N)C(=O)N[C@@H](CCC(N)=O)C(=O)N[C@@H](CCCNC(=N)N)C(=O)N[C@@H](CCCNC(=N)N)C(=O)N[C@@H](CCCNC(=N)N)C(N)=O)NC1=O` [ST-CY14] (H-CEGCKGF[S5]RRT[S5]RYYGRKKRRQRRR-NH2; staple 8-12), the “Interaction with mutated Nur77 (MST)” value in assay [1] was “disrupted the interaction”. Further, in assay [2], the “CD36 and FABP4 protein expression (immunoblot)” value is “inhibited the protein expression of CD36 and FABP4”; the “Nur77 protein expression (immunoblot)” value is on record as “increase in Nur77 expression”.

Values taken from PMC11234460, “In Silico Discovery of Stapled Peptide Inhibitor Targeting the Nur77‐PPARγ Interaction and Its Anti‐Breast‐Cancer Efficacy” (Advanced Science, 2024).
